Data taken from patent publication US20030229140A1, “Herbal molecule as potential anti-leukemic drug” (priority 2002, published 2003).

Assays:
CML patient's PBMC = experiment: Incubation of CML patient's PBMC (leukemic cells) with CA/PCQ, viable cell count; format: cell-based, human; conditions: for % Inhibition of cell growth (After 3 days of incubation): CML patient's leukemic cells, 2×10^5 cells per ml per well
Method: Whole blood (10 ml each) was drawn from previously diagnosed myeloid leukemic patients, one patient was diagnosed as AML and the other one was diagnosed as CML. Mononuclear cells were separated by Ficoll/hypaque density gradient centrifugation. […] Cells were then washed and counted for viability.

[1] = tested on: Promonocytic cell line (U937); experiment: Incubation of CD33+ promonocytic cell line U937 with CA/PCQ, viable cell count; format: cell-based; conditions: for % Inhibition of cell growth (After 3 days of incubation): 2×10^5 cells per ml per well
Method: Culture of Promonocytic cell line U937. […] This cell line is CD33^+. Incubation of CD33^+ cell line U937 with CA. […] Cells were then washed and counted for viability.

[2] = tested on: Erythroleukemic cell line (K562); experiment: Incubation of CD33- erythroleukemic cell line K562 with CA/PCQ, viable cell count; format: cell-based; conditions: for % Inhibition of cell growth (After 3 days of incubation): 2×10^5 cells per ml per well
Source text: This cell line was collected from American Type Culture Collection (ATCC), VA, USA. This cell line is […]. […] Cells were then washed and counted for viability.

Normal PBMC = experiment: Growth inhibition of normal individuals' PBMC by CA/PCQ; format: cell-based, human; conditions: Normal individual's PBMC, 3 days, 2×10^5 cells per ml per well
Source text: Preparation of peripheral blood mononuclear cells (PBMC) from normal individuals. Whole blood was collected and mononuclear cells were separated by Ficoll/Hypaque density gradient centrifugation.

leukemic cells = experiment: Biological activity (destruction of leukemic cells) of Piper betel fractions and HPLC peaks; format: cell-based; conditions: fractions, zones and HPLC peaks of Piper betel leaf extract
Method: Collected material was examined for biological activity i.e. destruction of leukemic cells. […] 10 gm of above-mentioned material was loaded on Sephadex LH-20 column and chromatographed with water, water-methanol (1:1) and methanol as eluent. Three different fractions thus obtained from three different solvent systems were separately checked for biological activity. […] The column was equilibrated with methanol-water-acetic acid (23:76:1), flow rate was maintained at 1.0 ml per min and peaks were identified at 280 nm. According to the retention time (RE) different peaks could be divided into three zones, ZA/ZB and ZC (FIG. 1). ZA had 4 major peaks whereas ZB had very small to moderate 10 peaks and ZC had two distinct peaks. It was convenient to observe biological activity of three zones AA, ZB and ZC, which were separately tested on leukemia cells for destructive activity.

CD33+ myeloid cells = conditions: earlier patent filing; cited from earlier work

## O=C(C=Cc1ccc(O)cc1)OC1CC(O)(C(=O)O)CC(O)C1O (stereo not shown) [PCQ, 3-o-p-Coumaryl quinic acid]
CML patient's PBMC; CML leukemic cells, 2×10^6/ml/well, 25 μg/ml of PCQ
  growth inhibition of leukemic cell lines: up to 2.38%
CML patient's PBMC; 25.0 μg/ml
  % Inhibition of cell growth (After 3 days of incubation): 2.38%
CML patient's PBMC; 50.0 μg/ml
  % Inhibition of cell growth (After 3 days of incubation): 4.76%
[1]; U937, 25.0 μg/ml
  % Inhibition of cell growth (After 3 days of incubation): 2.08%
[1]; U937, 50.0 μg/ml
  % Inhibition of cell growth (After 3 days of incubation): 4.17%
[1]; U937, 2×10^6/ml/well, 25 μg/ml of PCQ
  growth inhibition of leukemic cell lines: up to 2.08%
[2]; K562, 25.0 μg/ml
  % Inhibition of cell growth (After 3 days of incubation): 4.00%
[2]; K562, 50.0 μg/ml
  % Inhibition of cell growth (After 3 days of incubation): 8.00%
[2]; K562, 2×10^6/ml/well, 25 μg/ml
  growth inhibition of leukemic cell lines: up to 4%
Normal PBMC; 25.0 μg/ml
  % Inhibition of cell growth (After 3 days of incubation): 0.00%
Normal PBMC; 50.0 μg/ml
  % Inhibition of cell growth (After 3 days of incubation): 1.67%
Leukemic cells
  biological activity i.e. destruction of leukemic cells (in words): demonstrated considerable activity
CD33+ myeloid cells
  CD33+ myeloid cells destruction (in words): showed CD33+myeloid cells destruction
